In US7413837B2, “Charge control agent and toner for electrostatic image development containing the same” (Orient Chemical Industries, Ltd., priority 2002, dated 2008):

Assay: confirmatory test of the sublimation
Format: physicochemical
Conditions: 100 mg compound mixed with 2 g resin of acid value 19 mg KOH/g in crucible, heated at 190 degrees centigrade for 1 hour
Experimental: Subsequently, the confirmatory test of the sublimation of the monoazo compound was performed. 100 mg of the monoazo compound and 2 g of the resin having 19 mg KOH/g of the acid value were added into a 25 mL crucible, and mixed. A filter paper was put on the crucible. After the bottom of crucible was heated at 190 degrees centigrade for 1 hour, an under side of the filter paper was observed.
Subsequently, the confirmatory test of the sublimation of the monoazo metals-compound was performed. 100 mg of the metals-compound and 2 g of the resin having 19 mg KOH/g of the acid value are added and mixed into a 25 mL crucible. A filter paper was put on the crucible. After the bottom of the crucible was heated at 190 degrees centigrade for 1 hour, the under side of the filter paper was observed.

sublimation property (accretions of sublimates on under side of filter paper): no sublimation property
SMILES: COC(=O)Nc1cccc2ccc(O)c(N=Nc3cc(Cl)ccc3O)c12 [I-1]
